The values that follow come from patent publication US9445998B2, “Pharmaceutical dosage forms comprising a low-solubility drug and a polymer” (Bend Research, Inc., priority 2004, dated 2016).

In brackets after ≈: the same amount, converted by molar mass. Where a name gives a salt, the structure may show the parent alone. Read-outs that look alike come from different tables or passages of the source.

Series [1] is classed as physicochemical. The conditions noted are these: not told. Here is the method:
An Accurel® PP 1E microporous polypropylene membrane was obtained from Membrana GmbH (Wuppertal, Germany). The membrane was washed in isopropyl alcohol and rinsed in methanol in a sonicating bath for 1 minute at ambient temperature, and then allowed to air dry at ambient temperature. The feed side of the membrane was then plasma-treated to render it hydrophilic by placing a sample of the membrane in a plasma chamber. The atmosphere of the plasma chamber was saturated with water vapor at a pressure of 550 mtorr. A plasma was then generated using radio frequency (RF) power inductively coupled into the chamber via annular electrodes at a power setting of 50 watts for 45 seconds. The contact angle of a drop of water placed on the surface of the plasma-treated membrane was less than about 40°. The contact angle of a drop of water placed on the permeate side of the same membrane was greater than about 110°.
A permeate reservoir was formed by gluing a sample of the plasma-treated membrane to a glass tube having an inside diameter of about 1 inch (2.54 cm) using an epoxy-based glue (LOCTITE® E-30CL HYSOL® from Henkel Loctite Corp, Rocky Hill, Conn.). The feed-side of the membrane was oriented so that it was on the outside of the permeate reservoir, while the permeate-side of the membrane was oriented so that it was on the inside of the reservoir. The effective membrane area of the membrane on the permeate reservoir was about 4.9 cm^2. The permeate reservoir was placed into a glass feed reservoir. The feed reservoir was equipped with a magnetic stir bar and the reservoir was placed on a stir plate and the stir rate was set to 100 rpm during the test. The apparatus was placed into a chamber maintained at 37° C. for the duration of the test. Further details of the test apparatus and protocols are presented in co-pending U.S. Patent Application Ser. No. 60/557,897, entitled “Method and Device for Evaluation of Pharmaceutical Compositions,” filed Mar. 30, 2004, incorporated herein by reference.
To form the feed solution, a 1.429 mg (0.5 mgA) sample of CC-1 was weighed into a feed reservoir. (As used herein, “mgA” is milligrams of active drug, reported as the free base, non-salt form, non-hydrate drug molecule.) To this was added 5 mL of the MFD solution previously described, consisting of PBS solution containing 7.3 mM sodium taurocholic acid and 1.4 mM of 1-palmitoyl-2-oleyl-sn-glycero-3-phosphocholine (0.5% NaTC/POPC). […] The feed solution was mixed using a vortex mixer for 1 minute. Before the membrane contacted the feed solution, 5 mL of 60 wt % decanol in decane was placed into the permeate reservoir. Time zero in the test was when the membrane was placed in contact with the feed solution. A […] aliquot of the permeate solution was collected at the times indicated. Samples were then diluted in […] IPA and analyzed using HPLC.
The maximum flux of drug across the membrane (in units of μgA/cm^2-min) was determined by performing a least-squares fit to the data in Table 4 from 0 to 60 minutes to obtain the slope (CC-1: 0.26 μgA/mL-min; Control 1A: 0.13 μgA/mL-min; Control 1B: 0.07 μgA/mL-min), multiplying the slope by the permeate volume (5 mL), and dividing by the membrane area (4.9 cm^2).

Series [2] can be described thus: Microcentrifuge dissolution test in MFD solution. In kind it is physicochemical. The conditions noted are these: for Dissolved Ziprasidone Concentration / AUC: MFD solution pH 6.5, 37° C.; for Dissolved Ziprasidone Concentration: 200 μgA/mL if all dissolved. Further details: AUC: concentration or dose not given beside the values. On the procedure:
A microcentrifuge dissolution test was performed to verify that ziprasidone hydrochloride monohydrate is a solubility-improved form of ziprasidone. For this test, a sufficient amount of ziprasidone hydrochloride monohydrate was added to a microcentrifuge test tube so that the concentration of ziprasidone would have been 200 μgA/mL, if all of the ziprasidone had dissolved. The tests were run in duplicate. The tubes were placed in a 37° C. temperature-controlled chamber, and 1.8 mL MFD solution at pH 6.5 and 290 mOsm/kg was added to each respective tube. The samples were quickly mixed using a vortex mixer for about 60 seconds. The samples were centrifuged at 13,000 G at 37° C. for 1 minute prior to collecting a sample. The resulting supernatant solution was then sampled and diluted 1:5 (by volume) with methanol. Samples were analyzed by high-performance liquid chromatography (HPLC) at a UV absorbance of 315 nm using a Zorbax RxC8 Reliance column and a mobile phase consisting of 55% (50 mM potassium dihydrogen phosphate, pH 6.5)/45% acetonitrile. Drug concentration was calculated by comparing UV absorbance of samples to the absorbance of drug standards. The contents of each tube were mixed on the vortex mixer and allowed to stand undisturbed at 37° C. until the next sample was taken. Samples were collected at 4, 10, 20, 40, 90, and 1200 minutes following administration to the MFD solution.
A similar test was performed with the crystalline ziprasidone free base as a control, and a sufficient amount of material was added so that the concentration of compound would have been 200 μgA/mL, if all of the ziprasidone had dissolved.
The concentrations of ziprasidone obtained in these tests were used to determine the maximum dissolved concentration of ziprasidone (“MDC90”) and the area under the concentration-versus-time curve (“AUC90”) during the initial ninety minutes.

A short description of series [3]: Solubility in water. In kind it is physicochemical. To be noted: expressed as the free base, hydrochloride monohydrate. The text has this: An example of a drug having a crystalline highly soluble salt form is ziprasidone. Ziprasidone hydrochloride monohydrate has a solubility of about 10 μgA/mL (expressed as the free base) in water, whereas the free base form has a solubility of less than about 0.2 μgA/mL under the same conditions. Thus, crystalline ziprasidone hydrochloride is a solubility-improved form relative to the crystalline free base form of ziprasidone.

The conditions of series [4]: for maximum dissolved drug concentration: pH 6.5 PBS solution; for solubility in phosphate buffered saline: pH 6.5. The text has this:
It is known that some drugs may crystallize into one of several different crystal forms. Such crystal forms are often referred to as “polymorphs.” As used herein, “a high-energy crystalline form” means that the drug is in a crystal form which provides solubility improvement as described below.
By “amorphous” is meant simply that the drug is in a non-crystalline state. As used herein, the term “a major portion” of means that at least 60 wt % of the drug in the composition is in the amorphous form, rather than the crystalline form. […] Amounts of crystalline drug may be measured by Powder X-Ray Diffraction (PXRD), Scanning Electron Microscope (SEM) analysis, differential scanning calorimetry (DSC), or any other standard quantitative measurement.
An appropriate PBS solution is an aqueous solution comprising 20 mM Na2HPO4, 47 mM KH2PO4, 87 mM NaCl, and 0.2 mM KCl, adjusted to pH 6.5 with NaOH. An appropriate MFD solution is the same PBS solution wherein there is also present 7.3 mM sodium taurocholic acid and 1.4 mM of 1-palmitoyl-2-oleyl-sn-glycero-3-phosphocholine. Water is a preferred dissolution media for some fast precipitating salts. […] In such cases it may be preferred to use an unbuffered test medium such as distilled water as the dissolution medium.

Regarding ziprasidone tosylate [Control 3], the “Maximum Flux of Ziprasidone” value in series [1] is 0.04 μg/cm^2-min.

In the case of `O=C1Cc2cc(CCN3CCN(c4nsc5ccccc45)CC3)c(Cl)cc2N1` [Ziprasidone hydrochloride monohydrate, ziprasidone hydrochloride monohydrate], the “AUC90 relative to that provided by the free base” value in series [2] (MFD solution) is listed as 14 fold. For the same molecule, the “MDC90 relative to that provided by the free base” value in series [2] (MFD solution) came to 11 fold. Also, the “Dissolved Ziprasidone Concentration” value stood at 0 μgA/mL in series [2] (time 0 min); 14 μgA/mL in series [2] (time 4 min, hydrochloride monohydrate); 15 μgA/mL in series [2] (time 10 min, hydrochloride monohydrate); 20 μgA/mL in series [2] (time 20 min, hydrochloride monohydrate); 22 μgA/mL in series [2] (time 40 min, hydrochloride monohydrate); 18 μgA/mL in series [2] (time 90 min, hydrochloride monohydrate). Moreover, the “Dissolved Ziprasidone Concentration” value in series [2] (time 1200 min, hydrochloride monohydrate) is 9 μgA/mL. The AUC in series [2] (up to time 0 min) is 0 min-μgA/mL; in series [2] (up to time 4 min, hydrochloride monohydrate) it was 30 min-μgA/mL; in series [2] (up to time 10 min, hydrochloride monohydrate), 110 min-μgA/mL; in series [2] (up to time 20 min, hydrochloride monohydrate), 280 min-μgA/mL; in series [2] (up to time 40 min, hydrochloride monohydrate), 700 min-μgA/mL; in series [2] (up to time 90 min, hydrochloride monohydrate) it was 1,700 min-μgA/mL. Further, in series [2] (up to time 1200 min, hydrochloride monohydrate), the AUC is reported as 16,400 min-μgA/mL. Moreover, the AUC90 in series [2] (area under the concentration-versus-time curve during the initial ninety minutes, MFD solution, hydrochloride monohydrate) is 1700 min·µgA/mL. In series [2] (maximum dissolved concentration during the initial ninety minutes, MFD solution, hydrochloride monohydrate), this molecule showed an MDC90 of 22 µgA/mL. Moreover, the solubility in water result in series [3] is “about 10 μgA/mL”. Moreover, the “Maximum Flux of Ziprasidone” value in series [1] is on record as 0.16 μgA/cm^2-min. In addition, the “Concentration (drug in the permeate solution)” value in series [1] (0 min, 100 μgA/mL, pH 6.5) amounted to 0.5 μgA/mL; in series [1] (20 min, 100 μgA/mL, pH 6.5) it was 5.2 μgA/mL; in series [1] (40 min, 100 μgA/mL, pH 6.5), 8.1 μgA/mL; in series [1] (60 min, 100 μgA/mL, pH 6.5) it was 10.0 μgA/mL; in series [1] (90 min, 100 μgA/mL, pH 6.5) it was 11.4 μgA/mL; in series [1] (120 min, 100 μgA/mL, pH 6.5) it was 12.9 μgA/mL. Moreover, the “Concentration (drug in the permeate solution)” value in series [1] (180 min, 100 μgA/mL, pH 6.5) is listed as 18.1 μgA/mL; in series [1] (240 min, 100 μgA/mL, pH 6.5), 20.9 μgA/mL; in series [1] (360 min, 100 μgA/mL, pH 6.5), 22.6 μgA/mL.

On to `O=C1Cc2cc(CCN3CCN(c4nsc5ccccc45)CC3)c(Cl)cc2N1` [Control 1A, ziprasidone hydrochloride monohydrate], for which the “Ziprasidone Concentration in Permeate” value in series [1] (0 min, 100 μgA/mL, pH 6.5) was found to be 0.5 μgA/mL; in series [1] (20 min, 100 μgA/mL, pH 6.5), 3.8 μgA/mL; in series [1] (40 min, 100 μgA/mL, pH 6.5) it was 6.0 μgA/mL; in series [1] (60 min, 100 μgA/mL, pH 6.5) it was 8.4 μgA/mL; in series [1] (90 min, 100 μgA/mL, pH 6.5) it was 12.4 μgA/mL; in series [1] (120 min, 100 μgA/mL, pH 6.5) it was 15.3 μgA/mL. Besides, the “Ziprasidone Concentration in Permeate” value amounted to 20.6 μgA/mL in series [1] (180 min, 100 μgA/mL, pH 6.5); 25.2 μgA/mL in series [1] (240 min, 100 μgA/mL, pH 6.5); 30.6 μgA/mL in series [1] (360 min, 100 μgA/mL, pH 6.5). For the same molecule, the “Maximum Flux of Ziprasidone” value in series [1] (100 μgA/mL, pH 6.5) was 0.13 μgA/cm^2-min.

In the case of `O=C(N[C@@H](Cc1ccccc1)[C@@H](O)C(=O)N1C[C@@H](O)[C@@H](O)C1)c1cc2cc(Cl)ccc2[nH]1` [amorphous form, 5-chloro-1H-indole-2-carboxylic acid [(1S)-benzyl-3-((3R,4S)-dihydroxypyrrolidin-1-yl-)-(2R)-hydroxy-3-oxypropyl]amide], in series [4], the “maximum dissolved drug concentration” value is listed as “about 600 μg/mL”.

For the molecule `O=C(N[C@@H](Cc1ccccc1)[C@@H](O)C(=O)N1C[C@@H](O)[C@@H](O)C1)c1cc2cc(Cl)ccc2[nH]1` [A1, 5-chloro-1H-indole-2-carboxylic acid [(1S)-benzyl-3-((3R,4S)-dihydroxypyrrolidin-1-yl)-(2R)-hydroxy-3-oxpropyl]amide], the “solubility in phosphate buffered saline” value in series [4] was “about 480 μg/mL”.

In the case of `O=C(N[C@@H](Cc1ccccc1)[C@@H](O)C(=O)N1C[C@@H](O)[C@@H](O)C1)c1cc2cc(Cl)ccc2[nH]1` [A2, 5-chloro-1H-indole-2-carboxylic acid [(1S)-benzyl-3-((3R,4S)-dihydroxypyrrolidin-1-yl)-(2R)-hydroxy-3-oxpropyl]amide], in series [4], the “solubility in phosphate buffered saline” value was determined as 87 µg/mL (≈ 190 µM) and the “maximum dissolved drug concentration” value was 87 µg/mL.
